Entries after “also recorded” stand apart in the source; their conditions may differ.
Assays:
expanded CD4+CD25+ cells = test: Intracellular cytokine production of expanded Tregs after PMA and ionomycin; type: cell-based, human; details: PMA and ionomycin 24 hours; Tregs expanded with rapamycin
Procedure: Expanded CD4^+CD25^+ cells were stimulated with phorbol myristate acetate (PMA) (2 ng/ml) and ionomycin (500 ng/ml) (Sigma) for 24 hours. Monensin (GolgiStop, BD Biosciences) was added for the last 4 hours of incubation. Cells were fixed and permeabilized using Human FOXP3 Buffer Set, followed by staining with fluorochrome-conjugated IFNγ and IL-10 mAbs.
One of the reasons for these Tregs showing high suppression capacity over CD8+ T cells may be due to Tregs lacking the ability to produce IFNγ.

[1] = system: CD25+FOXP3− cell population; test: Overnight incubation of CD4+ cells with IL-2: CD25+FOXP3- cell population; type: cell-based, human; details: overnight incubation with IL-2
Procedure: Despite high expression of TNFR2 on Tregs, some TNFR2 expression is also observable on CD4+ T cells that are not true Tregs because they only express intermediate levels of CD25, i.e., CD4^+CD25^mid cells. I therefore studied the impact of overnight incubation on CD25^mid cell subpopulations of IL-2 alone, IL-2 and TNF-α, or IL-2 and TNFR2 agonist, or IL-2 and TNFR2 antagonist. […] However, I observed suppression with IL-2 and TNFR2 antagonist relative to the other three groups.

[2] = system: freshly isolated human CD4+ cells; test: FOXP3 induction by TNF-α in freshly isolated human CD4+ cells; type: cell-based
Procedure: I cultured freshly isolated human CD4+ cells from 14 human subjects only with TNF-α for 16 hours (FIG. 1B). […] IL-2 is important for Tregs induction and maintenance in mice. […] Thus, the data in FIGS. 1B and 1C confirm that TNF-α […] in vitro.

[3] = co-incubation with IL-2, compared to IL-2 alone

TNF-α
percentage of IFNγ+ cells / IFNγ production (expanded CD4+CD25+ cells): lowest percentages of IFNγ+ cells
proportion of CD25hiFOXP3− cells [1]: rise in the proportion of CD25^hiFOXP3^− cells
proportion of CD25hiFOXP3− cells ([1]; listed as TNF): Significant percentage increases
induction of Tregs (inducible FOXP3) ([2]; TNF-α alone, 16 hours, 14 subjects): no induction of Tregs; also recorded: does not induce FOXP3
induction of Tregs (inducible FOXP3) [2, 3]: significant increase in Tregs over IL-2 alone; also recorded: does induce it to higher levels
percentage of CD4+CD25hi FOXP3 cells (flow cytometry) [2, 3]: increased the percentage of CD4+CD25^hi FOXP3 cells; also recorded: greater intracellular induction of FOXP3

From patent publication US9821010B2, “Methods for expansion or depletion of T-regulatory cells” (The General Hospital Corporation, priority 2013, dated 2017)
